# Results: paper PMC4000049, “Genome segment 5 of Antheraea mylitta cytoplasmic polyhedrosis virus encodes a bona fide guanylyltransferase” (Virology Journal, 2014)
# Test system: T1, p65 (AmCPV S5-encoded guanylyltransferase)
# T1 construct: entire S5 ORF (nt 266 to 2086; 606 residues, ~65 kDa), His-tagged in pQE-30, E. coli M15, Ni-NTA
# Assay: pyrophosphatase-coupled malachite green assay of capping, replot of double-reciprocal plots
# Assay type: biochemical, Antheraea mylitta cypovirus 4
# Conditions: co-substrate 5'-diphosphate-ended viral RNA (50 to 150 nM), 5 mM MgCl2, 5 mM DTT, 50 mM Tris-HCl pH 7.5, 25°C; ping-pong; covalent GMP intermediate
compound,measurement,value
Nc1nc2c(ncn2[C@@H]2O[C@H](COP(=O)(O)OP(=O)(O)OP(=O)(O)O)[C@@H](O)[C@H]2O)c(=O)[nH]1 [GTP],Km,34.2 µM
